Among the test systems are A549 NSCLC; HOP-62 NSCLC; M14 melanoma; MOLT-4 leukemia; SF-295 CNS; SK-MEL-28 melanoma; TK-10 renal; UACC-257 melanoma; HCC-2998 colon.
What all share (assay): inhibition of tumour cell growth, NCI panel, 48 h

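All cell lines were grown in 96-well plates and treated with compound for 48 hours. Abbreviation: GI50, concentration required for 50% inhibition of growth. TGI is the concentration that stops growth completely.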

Regarding `COc1ccccc1CCc1cc(OC)c(OC)c(OC)c1`, the TGI in the assay with A549 NSCLC was over 100 µM; in the assay on HOP-62 NSCLC, over 100 µM; in the assay on M14 melanoma, over 100 µM; in the assay with MOLT-4 leukemia, 59.9 µM; in the assay on SF-295 CNS it was over 100 µM; in the assay with SK-MEL-28 melanoma, over 100 µM. The TGI in the assay with TK-10 renal and with UACC-257 melanoma was over 100 µM throughout.

`CCC[CH2][Sn]1([CH2]CCC)[O]CC(CN2CCCC2)[O]1` (stereo unspecified): the GI50 in the assay on A549 NSCLC is 47.2 µM; with HCC-2998 colon, 14.3 µM; in the assay on HOP-62 NSCLC it was 34.1 µM; in the assay on M14 melanoma, 16.9 µM; with MOLT-4 leukemia, 14.3 µM; with SF-295 CNS, 14.5 µM. For the same compound, the GI50 in the assay on SK-MEL-28 melanoma was 19 µM; in the assay with TK-10 renal, 12 µM; in the assay with UACC-257 melanoma it was 14.3 µM. Further, the TGI was over 100 µM in the assay on A549 NSCLC; 28.5 µM in the assay with HCC-2998 colon; 73.8 µM with HOP-62 NSCLC; 32.5 µM with M14 melanoma; 50.4 µM in the assay with MOLT-4 leukemia; 28.2 µM with SF-295 CNS. For the same compound, the TGI turned out to be 34.9 µM with SK-MEL-28 melanoma, 24.3 µM in the assay with TK-10 renal and 29.7 µM in the assay on UACC-257 melanoma.

For the compound `O=C1C2C3C=C4c5ccccc5N(c5ccccc5)C4(C2C(=O)N1Cc1ccccc1)C1C(=O)N(Cc2ccccc2)C(=O)C31` (stereo unspecified), the TGI with A549 NSCLC, in the assay on HCC-2998 colon, with MOLT-4 leukemia, in the assay with SF-295 CNS, in the assay with SK-MEL-28 melanoma and with TK-10 renal was over 100 µM in each case. This compound also returned a TGI with UACC-257 melanoma of over 100 µM.

`NCCCCN(CCCN)/[N+]([O-])=N\O`: the TGI in the assay with A549 NSCLC, with HCC-2998 colon, with HOP-62 NSCLC, in the assay with M14 melanoma, in the assay with MOLT-4 leukemia and with SF-295 CNS was over 100 µM each time. The TGI with SK-MEL-28 melanoma and in the assay with UACC-257 melanoma was over 100 µM each time.

Turning to `Cc1cn(C2CC(O)C(CO)O2)c(=O)n2nnnc12` (stereo unspecified), the TGI in the assay with A549 NSCLC, in the assay on HCC-2998 colon, in the assay on HOP-62 NSCLC, in the assay on M14 melanoma, with MOLT-4 leukemia and in the assay with SF-295 CNS was over 100 µM in each case. For the same compound, the TGI in the assay with SK-MEL-28 melanoma, in the assay with TK-10 renal and in the assay with UACC-257 melanoma was over 100 µM in each case.

As to `CC1(C)C(=O)N(CCCCCCN2C(=O)C(C)(C)c3ccccc32)c2ccccc21`, the TGI is over 100 µM in the assay with A549 NSCLC; over 100 µM with HCC-2998 colon; over 100 µM in the assay on HOP-62 NSCLC; 87.4 µM in the assay with M14 melanoma; 60 µM in the assay on MOLT-4 leukemia; over 100 µM in the assay on SF-295 CNS. For the same compound, the TGI was over 100 µM with SK-MEL-28 melanoma, over 100 µM in the assay with TK-10 renal and 52 µM in the assay with UACC-257 melanoma.

As for `COc1cc(C(C)O)c[n+](CCc2c[nH]c3ccccc23)c1` (stereo unspecified), the TGI with A549 NSCLC, in the assay on HCC-2998 colon, in the assay on HOP-62 NSCLC, in the assay with M14 melanoma, in the assay with MOLT-4 leukemia and with SF-295 CNS was over 100 µM throughout. Also, the TGI with TK-10 renal and in the assay with UACC-257 melanoma was over 100 µM throughout.

Consider `Cc1nc(N)sc1C(=O)/C=C\c1ccc2c(c1)OCO2`, for which the TGI in the assay with A549 NSCLC, with HCC-2998 colon, in the assay on HOP-62 NSCLC, with M14 melanoma, in the assay with MOLT-4 leukemia and with SF-295 CNS was over 100 µM in each case. For the same compound, the TGI in the assay with SK-MEL-28 melanoma, in the assay with TK-10 renal and in the assay on UACC-257 melanoma was over 100 µM in each case.

As to `COC(=O)/C(=N\Nc1nnc(C)n1N)C(C#N)c1ccc(Cl)cc1` (stereo unspecified), the TGI in the assay on A549 NSCLC, in the assay on HCC-2998 colon, in the assay with HOP-62 NSCLC, in the assay on M14 melanoma, in the assay with SF-295 CNS and in the assay with SK-MEL-28 melanoma was over 100 µM each time. Also, the TGI with TK-10 renal and with UACC-257 melanoma was over 100 µM each time.

Regarding `COc1cc2c(cc1OC)C(CC(=O)NN=C(C)C)NCC2` (stereo unspecified), the TGI in the assay on A549 NSCLC, in the assay with HCC-2998 colon, with HOP-62 NSCLC, with M14 melanoma, with MOLT-4 leukemia and with SF-295 CNS was over 100 µM in each case. Moreover, the TGI in the assay with SK-MEL-28 melanoma, with TK-10 renal and in the assay with UACC-257 melanoma was over 100 µM each time.

In the case of `COC(=O)C1=C(C)N(NC(=O)OC(C)(C)C)C(=O)C1=P(c1ccccc1)(c1ccccc1)c1ccccc1`, the TGI in the assay on A549 NSCLC, with HCC-2998 colon, in the assay on HOP-62 NSCLC, in the assay with M14 melanoma, in the assay with MOLT-4 leukemia and in the assay on SF-295 CNS was over 100 µM each time. Besides, the TGI in the assay on TK-10 renal and in the assay with UACC-257 melanoma was over 100 µM throughout.

Regarding `C[C@@H]1CC(=O)C2CCCC1C2=O` (stereo partly specified), the TGI in the assay with A549 NSCLC, in the assay on HCC-2998 colon, in the assay on HOP-62 NSCLC, in the assay on M14 melanoma, in the assay with MOLT-4 leukemia and in the assay with SF-295 CNS was over 100 µM each time. Moreover, the TGI in the assay on SK-MEL-28 melanoma, in the assay with TK-10 renal and in the assay on UACC-257 melanoma was over 100 µM in each case.

Turning to `CC(=O)CSCc1ccccn1`, the TGI with A549 NSCLC is over 100 µM; in the assay with HCC-2998 colon, over 100 µM; in the assay with HOP-62 NSCLC, over 100 µM; in the assay on M14 melanoma, over 100 µM; in the assay with MOLT-4 leukemia, 61.4 µM; in the assay with SF-295 CNS, over 100 µM. Also, the TGI in the assay on SK-MEL-28 melanoma, in the assay with TK-10 renal and in the assay on UACC-257 melanoma was over 100 µM in each case.

Consider `CC1(C)SCc2nc3ncccc3n21`, for which the TGI with A549 NSCLC, in the assay with HCC-2998 colon, in the assay with HOP-62 NSCLC, with M14 melanoma, in the assay on MOLT-4 leukemia and in the assay on SF-295 CNS was over 100 µM throughout. Moreover, the TGI with SK-MEL-28 melanoma, in the assay on TK-10 renal and with UACC-257 melanoma was over 100 µM throughout.

In the case of `CC1CC[C@]2(C(=O)O)CCC3(C)C(=CC(=O)C4[C@@]5(C)CCC(=O)C(C)(C)C5CC[C@]43C)[C@@H]2[C@H]1C` (stereo partly specified), the TGI in the assay on A549 NSCLC was over 100 µM; with HOP-62 NSCLC, 46.3 µM; in the assay on M14 melanoma it was over 100 µM; with MOLT-4 leukemia, 32.2 µM; in the assay with SF-295 CNS it was over 100 µM; in the assay on SK-MEL-28 melanoma it was 42.9 µM. Also, the TGI with TK-10 renal came to 90.2 µM; with UACC-257 melanoma, 96.9 µM.

Values taken from PubChem BioAssay (NCI).
